Experimental data taken from patent publication US8497270B2, “Macrocyclic integrase inhibitors” (Elanco Animal Health Ireland Limited, priority 2009, dated 2013).
Read-outs that look alike come from different tables or passages of the source.

Tests used:
HIV-1 IIIB = assay: Assay 1: inhibitory activity on HIV replication, wild type (MT4-LTR-EGFP cells); type: cell-based; conditions: Human immunodeficiency virus 1, 72 h, 3 days, EGFP fluorescence
From the text: (§1) Assay 1—Inhibitory Activity on HIV Replication Wild Type, N155H Mutant, and Q148R Mutant
(§2) MT4-LTR-enhanced green fluorescent protein (EGFP) cells were obtained by transfecting MT4 cells with a selectable construct encompassing the coding sequences for the HIV LTR as a promoter for the expression of EGFP and subsequent selection of permanently transfected cells. MT4-cytomegalovirus (CMV)-EGFP cells were obtained by selection for permanently transformed MT4 cells with a CMV-EGFP reporter gene. Cell lines were maintained in RPMI 1640 medium supplemented with 10% heat-inactivated fetal calf serum, 2 mM L-glutamine, 0.1% NaHCO3, and antibiotics (0.02% gentamicin and 0.8% G418) and incubated in a humidified incubator with a 5% CO2 atmosphere at 37° C.
(§3) The antiviral activity of different inhibitors was determined in a cell-based HIV-1 replication assay. MT4-LTR-EGFP cells (150,000 cells/ml) were infected with HIV-1 (IIIB or site-directed mutant strains N155H or Q148R; multiplicity of infection [MOI] of 0.0025) in the presence or absence of inhibitor. After 3 days of incubation, the inhibition of HIV replication was quantified by measuring EGFP fluorescence, and expressed as the inhibitor concentration required for 50% inhibition of HIV-1 replication in cell culture (IIIB EC50—see Table 1).

[1] = tested on: HIV-1 site-directed mutant strain N155H; assay: Assay 1: inhibitory activity on HIV replication, N155H mutant (MT4-LTR-EGFP cells); type: cell-based; conditions: Human immunodeficiency virus 1, 72 h, read-out: N155H EC50
From the text: as §1, §2
(§4) N155H and Q148R mutant Integrase coding sequences were constructed in the pUC19-5′HXB2D vector (XbaI-SalI fragment of pHXB2D), containing the HIV-1 clone HXB2D IN coding sequence, by using a QuikChange site-directed mutagenesis kit (Stratagene, La Jolla, Calif.) and high-performance liquid chromatography-purified primers (Genset Oligos, La Jolla, Calif.). Altered plasmid sequences were confirmed by dideoxyribose sequencing.
(§5) For generation of site directed mutant (SDM) virus stocks, MT4 cells were subcultured at a density of 250,000 cells/ml on the day before transfection. Cells were pelleted and resuspended in phosphate-buffered saline at a concentration of 3.1×10^6 cells/ml. A 0.8-ml portion ([…]) was used for each transfection. Transfections were performed with a Bio-Rad Gene Pulser (Bio-Rad, Hercules, Calif.) with 0.4-cm electrode cuvettes (Bio-Rad). Cells were electroporated with 10 μg of SalI-linearized pUC19-3′HXB2D (SalI-XbaI fragment of pHXB2D) and 5 μg of SalI-digested SDM at 250 μF and 300 V, followed by a 30-min incubation at room temperature. Ten milliliters of fresh culture medium was then added to the suspension of transfected cells, and incubation was performed at 37° C. in a humidified atmosphere with 5% CO2. Cell cultures were monitored for the appearance of cytopathic effect (CPE). At virus breakthrough (full CPE), culture supernatant was typically harvested by centrifugation at 8 to 10 days after transfection and was stored at −80° C. for subsequent drug susceptibility determination.
as §3

[2] = tested on: HIV-1 site-directed mutant strain Q148R; assay: Assay 1: inhibitory activity on HIV replication, Q148R mutant (MT4-LTR-EGFP cells); type: cell-based; conditions: Human immunodeficiency virus 1, 72 h, read-out: Q148R EC50
From the text: as §1, §2, §4, §5, §3

[3] = Assay 2: cellular cytotoxic activity; type: cell-based; conditions: human, mock-infected MT4-CMV-EGFP cells, EGFP fluorescence
From the text: MT4-LTR-enhanced green fluorescent protein (EGFP) cells were obtained by transfecting MT4 cells with a selectable construct encompassing the coding sequences for the HIV LTR as a promoter for the expression of EGFP and subsequent selection of permanently transfected cells. MT4-cytomegalovirus (CMV)-EGFP cells were obtained by selection for permanently transformed MT4 cells with a CMV-EGFP reporter gene. Cell lines were maintained in RPMI 1640 medium supplemented with 10% heat-inactivated fetal calf serum, 2 mM L-glutamine, 0.1% NaHCO3, and antibiotics (0.02% gentamicin and 0.8% G418) and incubated in a humidified incubator with a 5% CO2 atmosphere at 37° C. Assay 2—Cellular Cytotoxic Activity The cytotoxicity of inhibitors was determined in parallel to the experiments under assay 1 on mock-infected MT4-CMV-EGFP cells (150,000 cells/ml) cultured in the presence or absence of different concentrations of compounds of formula I. After 3 days of incubation, inhibition of cell proliferation was quantified by measuring the EGFP fluorescence and expressed as the compound concentration that inhibits cell growth by 50% (CC50—see Table 1).

HIV-1 LAI (IIIB) = assay: Assay 3: inhibitory activity on HIV replication wild type in the presence of human serum; type: cell-based; conditions: Human immunodeficiency virus 1, IIIB, 96 h; in the presence of 50% human serum, 4 days, resazurin cell viability
Protocol: Assay 3—Inhibitory Activity on HIV Replication Wild Type in the Presence of Human Serum
For the Antiviral assay in the presence of 50% human serum MT-4-LTR-EGFP cells were infected with HIV-1 LAI (IIIB) at a MOI of 0.001 to 0.01 CCID50/cell in RPMI1640 medium. Following 1 h of incubation, cells were washed and plated into a 96-well plate containing serial dilutions of compound in the presence of 10% fetal calf serum (FCS), or 50% human serum. After 4 days incubation, the EC50 in the presence of 50% human serum (EC50/HS—see Table 1) was determined by a cell viability assay using resazurin (as described by Fields, R. D., and M. V. Lancaster (1993) Am. Biotechnol. Lab. 11:48-50).

[4] = target: recombinant HIV-1 integrase (Human immunodeficiency virus type 1 group M subtype B (isolate HXB2) (HIV-1), UniProt P04585); assay: Assay 4: 3dQ assay, inhibition of HIV integrase mediated 3'-processing; type: biochemical
Protocol: The inhibition of HIV integrase mediated 3′-processing was determined in a biochemical assay. For this a short (˜20 bp) double stranded U5 LTR substrate was generated by hybridization of 5 μM 5′-[…]-3′-alx488 (SEQ ID 1) with 7 μM dabcyl-5′-[…]-3′ (SEQ ID 2) in 10 mM Tris pH 8.0, 100 mM NaCl (heating to 95° C. and gradually cooling over 30′ to RT). Integrase inhibition was determined by incubation of 150 nM recombinant HIV-1 integrase, 100 nM recombinant LEDGF and 50 nM U5 LTR substrate in reaction buffer (25 mM MOPS pH7.2, 10 mM DTT, 10 mM MgCl2, 15 mM potassium glutamate and 2.5% DMSO) in the presence or absence of different concentrations test compounds. After 2 h at 37° C. reactions were stopped by adding ⅕ volumes of 0.5% SDS and fluorescence was measured (excitation at 488 nm, emission at 538 nm) and expressed as the inhibitor concentration required for 50% inhibition of the HIV integrase (IC50—see Table 1).

[5] = 3'-processing, 150 nM integrase, 100 nM LEDGF, 50 nM U5 LTR substrate, 2 h at 37° C., read-out: IC50

Structure (SMILES): CN1c2nc(c(O)c3ncccc23)C(=O)NCc2ccc(F)cc2C(=O)NCCCCS1(=O)=O [Compound 7]
- EC50 (HIV-1 IIIB): 4 nM
- EC50 [1]: 260 nM
- EC50 [2]: 20 nM
- CC50 at 3 days [3]: 13300 nM
- EC50 (HIV-1 LAI (IIIB)): 3 nM
- IC50 [4, 5]: 360 nM

Structure (SMILES): CN1c2nc(c(O)c3ncccc23)C(=O)NCc2ccc(F)cc2C(=O)NCCCCCS1(=O)=O [Compound 6]
- EC50 (HIV-1 IIIB): 4 nM
- EC50 [1]: 83 nM
- EC50 [2]: 8 nM
- CC50 at 3 days [3]: 27700 nM
- EC50 (HIV-1 LAI (IIIB)): 3 nM
- IC50 [4, 5]: 250 nM

Structure (SMILES): O=C1NCCCNc2nc(c(O)c3ncccc23)C(=O)NCc2ccc(F)cc21 [Compound 2]
- EC50 (HIV-1 IIIB): 8900 nM
- EC50 [2]: 36700 nM
- CC50 at 3 days [3]: 61000 nM
- IC50 [4]: 68000 nM

Structure (SMILES): O=C1NCCCCCCCNc2nc(c(O)c3ncccc23)C(=O)NCc2ccc(F)cc21 [Compound 5]
- EC50 (HIV-1 IIIB): 17 nM
- EC50 [1]: 390 nM
- EC50 [2]: 440 nM
- CC50 at 3 days [3]: 7700 nM
- EC50 (HIV-1 LAI (IIIB)): 51 nM
- IC50 [4, 5]: 1000 nM

Structure (SMILES): O=C1NCCCCCNc2nc(c(O)c3ncccc23)C(=O)NCc2ccc(F)cc21 [Compound 4]
- EC50 (HIV-1 IIIB): 71 nM
- EC50 [1]: 1900 nM
- EC50 [2]: 7200 nM
- CC50 at 3 days [3]: > 31000 nM
- EC50 (HIV-1 LAI (IIIB)): 130 nM

Structure (SMILES): O=C1NCCCN2CCN(CC2)c2nc(c(O)c3ncccc23)C(=O)NCc2ccc(F)cc21 [Compound 9]
- EC50 (HIV-1 IIIB): 17 nM
- EC50 [1]: 1510 nM
- EC50 [2]: 460 nM
- CC50 at 3 days [3]: 43000 nM
- EC50 (HIV-1 LAI (IIIB)): 25 nM
- IC50 [4, 5]: 1600 nM

Structure (SMILES): CN1c2nc(c(O)c3ncccc23)C(=O)NCc2ccc(F)cc2OCCCCCS1(=O)=O [Compound 12]
- EC50 (HIV-1 IIIB): 1 nM
- EC50 [1]: 170 nM
- EC50 [2]: 12 nM
- CC50 at 3 days [3]: > 98000 nM
- EC50 (HIV-1 LAI (IIIB)): 40 nM
- IC50 [4, 5]: 200 nM

Structure (SMILES): O=C1NCCCCCCNc2nc(c(O)c3ncccc23)C(=O)NCc2ccc(F)cc21 [Compound 1]
- EC50 (HIV-1 IIIB): 17 nM
- EC50 [1]: 420 nM
- EC50 [2]: 350 nM
- CC50 at 3 days [3]: 20700 nM
- EC50 (HIV-1 LAI (IIIB)): 35 nM
- IC50 [4, 5]: 950 nM

Structure (SMILES): O=C1NCc2ccc(F)cc2OCCCCC(=O)N2CCN(CC2)c2nc1c(O)c1ncccc21 [Compound 10]
- EC50 (HIV-1 IIIB): 3 nM
- EC50 [1]: 110 nM
- EC50 [2]: 39 nM
- CC50 at 3 days [3]: > 24000 nM
- EC50 (HIV-1 LAI (IIIB)): 27 nM

Structure (SMILES): CN1c2nc(c(O)c3ncccc23)C(=O)NCc2ccc(F)cc2OCCCCS1(=O)=O [Compound 11]
- EC50 (HIV-1 IIIB): 5 nM
- EC50 [1]: 310 nM
- EC50 [2]: 24 nM
- CC50 at 3 days [3]: > 24000 nM
- EC50 (HIV-1 LAI (IIIB)): 16 nM

Structure (SMILES): O=C1NCCCCNc2nc(c(O)c3ncccc23)C(=O)NCc2ccc(F)cc21 [Compound 3]
- EC50 (HIV-1 IIIB): 1060 nM
- EC50 [2]: 28000 nM
- CC50 at 3 days [3]: > 98000 nM

Structure (SMILES): O=C1NCCCCN2CCN(CC2)c2nc(c(O)c3ncccc23)C(=O)NCc2ccc(F)cc21 [Compound 8]
- EC50 (HIV-1 IIIB): 18 nM
- EC50 [1]: 1900 nM
- EC50 [2]: 850 nM
- CC50 at 3 days [3]: 3100 nM
- EC50 (HIV-1 LAI (IIIB)): 18 nM
- IC50 [4, 5]: 1200 nM
